# According to patent US4997817A, “Phyllanthostatin A” (Arizona Board of Reagents, priority 1990, dated 1991):
# Columns and labels:
# [1] = system: P388 murine lymphocytic leukemia; experiment: Cell growth inhibition against P388 murine lymphocytic leukemia (in vitro PS system), NCI standard protocol; assay type: cell-based; details: Mus musculus, read-out: ED50 (P388 murine lymphocytic leukemia, in vitro PS system)
# Text: Hplc-uv/vis and cell growth inhibition against the P388 murine lymphocytic leukemia (in vitro PS system) were used to guide the isolation of the lignan.
# [2] = Stability in solution at room temperature (nmr observation; MeOH solutions stored two days); assay type: physicochemical
# [3] = Thermal stability in DMSO-d6 (variable temperature 1H nmr); assay type: physicochemical; details: DMSO-d6, higher temperatures (FIGS. 2d,e); signals attributable to justicidin B appeared
# Procedure: Signals of the remaining carbons appeared as sharp single lines. These observations are explained by hindered rotation around the C-1/C-1' axis, resulting in conformational isomers. In order to provide evidence for or disprove this hypotheses, the ^1 H nmr spectra of the glycoside (shown above) were recorded in DMSO-d6 at different temperatures. Table 1 summarizes the chemical shifts observed at 25, 65, 105, 135, and 145° C. […] Room temperature (FIG. 2a) led to a complex coupling pattern that became more easily interpretable when the spectrum was recorded at 65° C. (FIG. 2b). Signals due to H-2', H-5' and H-6' broadened and disappeared when the temperature was raised (FIG. 2c). […] Other protons (not shown in FIG. 2) also appeared as single resonances at higher temperatures.
smiles,measurement,setting,value
COc1cc2cc(COC(C)=O)c(C(=O)O[C@@H]3O[C@H](CO)[C@@H](O)[C@H](O)[C@H]3O)c(-c3ccc4c(c3)OCO4)c2cc1OC [Phyllanthostatin A],IC50,[1],4 µg/mL
same,justicidin B detected in stored solution,"[2]; MeOH solutions, room temperature, two days",Justicidin B was also detected in MeOH solutions of glycoside stored at room temperature for two days
same,stability in solution,[2]; in solution,unstable in solution
same,decomposition at higher temperatures,[3],gradually decomposed
